Experimental findings from US20260053932A1, “COMPOUNDS AND METHODS FOR THE TARGETED DEGRADATION OF ANDROGEN RECEPTOR AND ASSOCIATED METHODS OF USE” (Arvinas Operations, Inc., priority 2020, published 2026) are described below.

Like-named read-outs stand apart in the source and are kept apart here.

As a reminder, the DC50 is the midpoint of the concentration-degradation curve.

This experiment concerns androgen receptor (AR) in LNCaP and/or VCaP cells. In words: Androgen Receptor ELISA assay (AR degradation). Type of experiment: cell-based. Here is the method: Androgen Receptor ELISA Assay. […] The protocols used with VCaP cells are described below.
The cells were grown for a minimum of 3 days.
(2)(i) A 10× stock plate in media was made; (ii) 2.5 μL of the 1000× stock was transferred to a new 10× stock plate (use 12 channel pipet, start at A (DMSO control) work thru H. When 247.5 µL of media was added to this plate, it served as a 10× stock; (iii) made media+1 nM R1881 for making 10× stock plate; (iv) added 247.5 μL of media with 1 nM R1881 to each well of the 10× stock plate, mix.
Then 22 μL of 10× stock was added to cells and incubated for 5 hours. […] Media was aspirated, and 100 μL 1× cell lysis buffer/well was added. The cells were placed on a shaker located in a cold room for 10 minutes and shaken at speed 7. The lysate mixture was mix and 20 μL transferred to 100 μl of Diluent in ELISA plate (0.15 μg/ml-[…]). The lysate-diluent mixture was store at 4° C. overnight on a shaker located in a cold room at speed 5 (gentle swirl).
The lysate-diluent mixture was shaken for 30 minutes at 37° C. The mouse AR antibody, anti-mouse antibody, TMB, and STOP solution were allowed to come to room temperature. The 1×ELISA buffer included in kit was made and loaded in reservoir. Media from the plate was discarded, the ELISA plate was tapped hard on paper towel, and washed 4×200 μl ELISA wash buffer using a plate washer for the first three washes and an eight channel aspirator for the fourth wash to more thoroughly aspirate the solution.
Next, 100 μL/well of mouse AR detection Ab was added; the plate was covered and shaken at 37° C. for 1 hour; media was discarded from the plates, the plates tapped on a paper towel and washed four times with 200 μL ELISA wash buffer with a plate washer for the first three washes and an eight channel aspirator for the fourth wash; 100 μL/well of anti-mouse—HRP conjugated Ab (comes with the kit) was added; the plates was cover and shaken at 37° C. for 30 minutes; the TMB reagent was allowed to come to room temperature; the media from the plate was discarded, the plates tapped on paper towel, and washed four times with 200 μL ELISA wash buffer with a plate washer for the first three washes and an eight channel aspirator for the fourth wash; plates were tapped on paper towel; 100 μL TMB was added to each well and the plate shaken for 2 minutes—while watching color. STOP solution (100 μL) was added when light blue color developed.
Data was analyzed and plotted using GraphPad Prism software. Exemplary compounds of Tables 1A, 1B, and 1C were assayed and the data shown below in Tables 2A, 2B, and 2C. DC50 (nM) categories (degradation of AR ELISA in LNCaP and/or VCaP cells) of Tables 2A, 2B, and 2C are as follows: A<1 nM; 1≤B<10 nM; 10≤C<100 nM; D≥100 nM. Dmax (%) categories (degradation of AR ELISA in LNCaP and/or VCaP cells) of Table 2 are as follows: A≥70; 50≤B<70; C<50

Setting [1] is: LNCaP and/or VCaP cells, 5 hours incubation, media with R1881, read-out: DC50 Code* (degradation of AR ELISA).
[2] abbreviates: degradation of AR ELISA in LNCaP and/or VCaP cells, Table 2C, read-out: DC50 Code*.

`COc1cc(O[C@H]2C[C@H](N(CC3CCN(c4ncc(C(=O)NC5CC6(C5)CN(Cc5cc(C)c(C#N)c(C)c5)C6)cn4)CC3)C(C)C)C2)cc2c1C(=O)N(C1CCC(=O)NC1=O)C2=O` (mixture of isomers) [Compound 12, rac-N-(2-(4-cyano-3,5-dimethylbenzyl)-2-azaspiro[3.3]heptan-6-yl)-2-(4-((((1r,3r)-3-((2-(2,6-dioxopiperidin-3-yl)-7-methoxy-1,3-dioxoisoindolin-5-yl)oxy)cyclobutyl) (isopropyl)amino)methyl)piperidin-1-yl)pyrimidine-5-carboxamide]: under setting [1], the DC50 is above 100 nM. Same read-out and setting: with `N#Cc1ccc(O[C@H]2CC[C@H](NC(=O)c3ccc(N4CCC(CN5CCN(c6ccc7c(c6)C(=O)N(C6(F)CCC(=O)NC6=O)C7=O)CC5)CC4)nn3)CC2)cc1Cl` (mixture of isomers) [Compound 18, rac-N-((1r,4r)-4-(3-chloro-4-cyanophenoxy)cyclohexyl)-6-(4-((4-(2-(3-fluoro-2,6-dioxopiperidin-3-yl)-1,3-dioxoisoindolin-5-yl)piperazin-1-yl)methyl)piperidin-1-yl)pyridazine-3-carboxamide] the figure was below 1 nM; with `N#Cc1ccc(O[C@H]2CC[C@H](NC(=O)c3ccc(N4CCC(CN[C@H]5C[C@H](Oc6ccc7c(c6)C(=O)N(C6CCC(=O)NC6=O)C7=O)C5)CC4)nn3)CC2)cc1Cl` (mixture of isomers) [Compound 51, rac-N-((1r,4r)-4-(3-chloro-4-cyanophenoxy)cyclohexyl)-6-(4-((((1r,3r)-3-((2-(2,6-dioxopiperidin-3-yl)-1,3-dioxoisoindolin-5-yl)oxy)cyclobutyl)amino)methyl)piperidin-1-yl)pyridazine-3-carboxamide], below 1 nM. Turning to `Cc1cc(O[C@H]2C(C)(C)[C@H](NC(=O)c3cnc(N4CCC(CN(C(C)C)[C@H]5C[C@H](Oc6ccc7c(c6)CN(C6CCC(=O)NC6=O)C7=O)C5)CC4)cn3)C2(C)C)cc(C)c1C#N` (mixture of isomers) [compound 126, rac-N-((1r,3r)-3-(4-cyano-3,5-dimethylphenoxy)-2,2,4,4-tetramethylcyclobutyl)-5-(4-((((1r,3r)-3-((2-(2,6-dioxopiperidin-3-yl)-1-oxoisoindolin-5-yl)oxy)cyclobutyl) (isopropyl)amino)methyl)piperidin-1-yl)pyrazine-2-carboxamide], under setting [2], the DC50 is above 100 nM.

Turning to `CC1(C)[C@H](NC(=O)c2ccc(N3CCC(CN4CCN(c5ccc6c(c5)C(=O)N(C5(F)CCC(=O)NC5=O)C6=O)CC4)CC3)cc2)C(C)(C)[C@H]1Oc1ccc(C#N)c(Cl)c1` (mixture of isomers) [compound 129, N-((1r,3r)-3-(3-chloro-4-cyanophenoxy)-2,2,4,4-tetramethylcyclobutyl)-4-(4-((4-(2-(3-fluoro-2,6-dioxopiperidin-3-yl)-1,3-dioxoisoindolin-5-yl)piperazin-1-yl)methyl)piperidin-1-yl)benzamide], the half-maximal degradation concentration (DC50) under setting [2] was in the range of 1 to 10 nM.

Consider `Cc1cc(O[C@H]2C(C)(C)[C@H](NC(=O)c3cnc(N4CCC(CN(C(C)C)[C@H]5C[C@H](Oc6ccc7c(c6)C(=O)N(C6CCC(=O)NC6=O)C7=O)C5)CC4)nc3C)C2(C)C)cc(C)c1C#N` (mixture of isomers) [compound 146, rac-N-((1r,3r)-3-(4-cyano-3,5-dimethylphenoxy)-2,2,4,4-tetramethylcyclobutyl)-2-(4-((((1r,3r)-3-((2-(2,6-dioxopiperidin-3-yl)-1,3-dioxoisoindolin-5-yl)oxy)cyclobutyl) (isopropyl)amino)methyl)piperidin-1-yl)-4-methylpyrimidine-5-carboxamide], for which, under setting [2], the DC50 was below 1 nM. Same read-out and setting: then `[2H]C([2H])([2H])Oc1cc(O[C@H]2C(C)(C)[C@H](NC(=O)c3ccc(N4CCC(CN(C(C)C)[C@H]5C[C@H](Oc6cc(OC([2H])([2H])[2H])c7c(c6)C(=O)N(C6CCC(=O)NC6=O)C7=O)C5)CC4)cc3)C2(C)C)ccc1C#N` (mixture of isomers) [compound 149, rac-N-((1r,3r)-3-(4-cyano-3-(methoxy-d3)phenoxy)-2,2,4,4-tetramethylcyclobutyl)-4-(4-((((1r,3r)-3-((2-(2,6-dioxopiperidin-3-yl)-7-(methoxy-d3)-1,3-dioxoisoindolin-5-yl)oxy)cyclobutyl) (isopropyl)amino)methyl)piperidin-1-yl)benzamide], with below 1 nM.

For the compound `Cc1cc(O[C@H]2C(C)(C)[C@H](NC(=O)c3ccc(N4CCC(OCCN(C)[C@H]5C[C@H](Oc6ccc7c(c6)C(=O)N(C6CCC(=O)NC6=O)C7=O)C5)CC4)cc3)C2(C)C)cc(C)c1C#N` (mixture of isomers) [compound 150, rac-N-((1r,3r)-3-(4-cyano-3,5-dimethylphenoxy)-2,2,4,4-tetramethylcyclobutyl)-4-(4-(2-(((1r,3r)-3-((2-(2,6-dioxopiperidin-3-yl)-1,3-dioxoisoindolin-5-yl)oxy)cyclobutyl) (methyl)amino)ethoxy)piperidin-1-yl)benzamide], the DC50 under setting [2] is below 1 nM. Still for that read-out and setting: then `[2H]C([2H])([2H])Oc1cc(O[C@H]2C[C@H](N(CC3CCN(c4ccc(C(=O)N[C@H]5C(C)(C)[C@H](Oc6cc(C)c(C#N)c(C)c6)C5(C)C)cc4)CC3)C(C)C)C2)cc2c1C(=O)N(C1CCC(=O)NC1=O)C2=O` (mixture of isomers) [compound 153, rac-N-((1r,3r)-3-(4-cyano-3,5-dimethylphenoxy)-2,2,4,4-tetramethylcyclobutyl)-4-(4-((((1r,3r)-3-((2-(2,6-dioxopiperidin-3-yl)-7-(methoxy-d3)-1,3-dioxoisoindolin-5-yl)oxy)cyclobutyl) (isopropyl)amino)methyl)piperidin-1-yl)benzamide], with below 1 nM; and `Cc1cc(O[C@H]2C(C)(C)[C@H](NC(=O)c3ccc(N4CCC(N(C)[C@H]5C[C@H](Oc6ccc7c(c6)C(=O)N(C6CCC(=O)NC6=O)C7=O)C5)CC4)cc3)C2(C)C)cc(C)c1C#N` (mixture of isomers) [compound 157, rac-N-((1r,3r)-3-(4-cyano-3,5-dimethylphenoxy)-2,2,4,4-tetramethylcyclobutyl)-4-(4-(((1r,3r)-3-((2-(2,6-dioxopiperidin-3-yl)-1,3-dioxoisoindolin-5-yl)oxy)cyclobutyl) (methyl)amino)piperidin-1-yl)benzamide], with below 1 nM; and `[2H]C([2H])([2H])Oc1cc(O[C@H]2C[C@H](N(CC3CCN(c4ccc(C(=O)N[C@H]5C(C)(C)[C@H](Oc6ccc(C#N)c(OC)c6)C5(C)C)cc4)CC3)C(C)C)C2)cc2c1C(=O)N(C1CCC(=O)NC1=O)C2=O` (mixture of isomers) [compound 159, rac-N-((1r,3r)-3-(4-cyano-3-methoxyphenoxy)-2,2,4,4-tetramethylcyclobutyl)-4-(4-((((1r,3r)-3-((2-(2,6-dioxopiperidin-3-yl)-7-(methoxy-d3)-1,3-dioxoisoindolin-5-yl)oxy)cyclobutyl) (isopropyl)amino)methyl)piperidin-1-yl)benzamide], with below 1 nM. Consider `CCN(C1CCN(c2ccc(C(=O)N[C@H]3C(C)(C)[C@H](Oc4cc(C)c(C#N)c(C)c4)C3(C)C)cc2)CC1)[C@H]1C[C@H](Oc2cc(OC)c3c(c2)C(=O)N(C2CCC(=O)NC2=O)C3=O)C1` (mixture of isomers) [compound 165, rac-N-((1r,3r)-3-(4-cyano-3,5-dimethylphenoxy)-2,2,4,4-tetramethylcyclobutyl)-4-(4-(((1r,3r)-3-((2-(2,6-dioxopiperidin-3-yl)-7-methoxy-1,3-dioxoisoindolin-5-yl)oxy)cyclobutyl) (ethyl)amino)piperidin-1-yl)benzamide], for which, under setting [2], the DC50 is below 1 nM. The same measure, in the same setting: with `CCN(CC1CCN(c2ccc(C(=O)N[C@H]3C(C)(C)[C@H](Oc4cc(C)c(C#N)c(C)c4)C3(C)C)cc2)CC1)[C@H]1C[C@H](Oc2cc(OC)c3c(c2)C(=O)N(C2CCC(=O)NC2=O)C3=O)C1` (mixture of isomers) [compound 169, rac-N-((1r,3r)-3-(4-cyano-3,5-dimethylphenoxy)-2,2,4,4-tetramethylcyclobutyl)-4-(4-((((1r,3r)-3-((2-(2,6-dioxopiperidin-3-yl)-7-methoxy-1,3-dioxoisoindolin-5-yl)oxy)cyclobutyl) (ethyl)amino)methyl)piperidin-1-yl) benzamide] the figure was below 1 nM.
